ChEMBL document CHEMBL3886475, “Substituted hetero-bicyclic compounds, compositions and medicinal applications thereof” (2016)
pIC50: −log10 of the molar value.

Biological target: Tyrosine-protein kinase BTK (Homo sapiens, UniProt Q06187)
Assay: Recombinant Human BTK Inhibition Assay: The inhibition assays were performed using the generic tyrosine kinase assay kit from C is Bio (HTRF KinEASE-TK #62TK0PEB). The assay is based on the principle of fluorescence resonance energy transfer (FRET) between the Europium Cryptate labeled anti-phosphotyrosine antibody and streptavidin labeled fluorophore, XL-665. In an uninhibited kinase reaction the biotinylated peptide substrate (Tk-Biotin) gets phosphorylated at an intermediate tyrosine site which is captured by anti-phosphotyrosine antibody which eventually acts as a FRET donor. The streptavidin labeled XL-665 binds strongly to the Tk-Biotin substrate and act as a FRET acceptor. The resultant FRET signal is measured at 665 nm. A ratio of this specific fluorescence (665 nm) to the background fluorescence (620 nm), conferred by the free antibody, is directly proportional to the kinase activity. Inhibition of the kinase activity by a pharmacological intervention such as a Btk inhibitor of the present disclosure will result into decreased FRET signal.

Chain of Tyrosine-protein kinase BTK (Q06187 whole entry): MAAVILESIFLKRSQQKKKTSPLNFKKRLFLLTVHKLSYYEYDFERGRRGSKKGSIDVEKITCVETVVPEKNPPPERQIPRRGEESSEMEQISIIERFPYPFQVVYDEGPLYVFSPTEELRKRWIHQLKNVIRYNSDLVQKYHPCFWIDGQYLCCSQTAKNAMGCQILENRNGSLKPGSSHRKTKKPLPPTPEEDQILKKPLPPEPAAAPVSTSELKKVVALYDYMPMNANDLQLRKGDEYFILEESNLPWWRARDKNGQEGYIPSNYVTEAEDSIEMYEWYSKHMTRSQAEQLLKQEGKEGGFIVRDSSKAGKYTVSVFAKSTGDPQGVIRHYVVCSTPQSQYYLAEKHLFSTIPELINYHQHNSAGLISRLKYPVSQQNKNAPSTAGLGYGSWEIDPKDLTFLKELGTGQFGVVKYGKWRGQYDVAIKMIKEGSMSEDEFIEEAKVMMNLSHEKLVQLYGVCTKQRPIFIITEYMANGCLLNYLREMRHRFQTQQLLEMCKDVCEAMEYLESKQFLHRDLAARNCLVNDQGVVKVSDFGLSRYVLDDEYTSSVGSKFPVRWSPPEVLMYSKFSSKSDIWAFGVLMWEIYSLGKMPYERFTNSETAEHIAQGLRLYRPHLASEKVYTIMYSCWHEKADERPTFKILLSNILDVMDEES

## CCN1CC(n2cc(-c3cc4c(-c5cccc(N6CCOc7cc(C8CC8)ccc7C6=O)c5CO)ccnc4[nH]3)cn2)C1
  pIC50: 8.15
